{
  "source": "paper PMC11191402",
  "about": "“High-Affinity NIR-Fluorescent Inhibitors for Tumor Imaging via Carbonic Anhydrase IX” (Bioconjugate Chemistry, 2024)",
  "key": {"human recombinant CAXII": {"biological_target": "T1, human recombinant CAXII (Homo sapiens, UniProt O43570)", "T1 construct": "Most isozymes were truncated, and only the catalytic domains of the proteins were produced; made in house; host or cells: bacterial expression system", "T1 sequence (O43570 30-289 limits assumed)": "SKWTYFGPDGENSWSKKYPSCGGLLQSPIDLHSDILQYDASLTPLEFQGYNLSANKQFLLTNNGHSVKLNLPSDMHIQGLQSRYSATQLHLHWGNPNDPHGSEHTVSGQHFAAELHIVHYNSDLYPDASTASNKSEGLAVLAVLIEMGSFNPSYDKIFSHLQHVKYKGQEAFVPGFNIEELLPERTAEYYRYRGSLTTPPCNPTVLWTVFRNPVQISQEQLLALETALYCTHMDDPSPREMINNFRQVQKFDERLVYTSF", "test": "Fluorescence-based thermal shift assay (FTSA), CAXII", "type": "binding", "conditions": "37 °C, pH 7.0", "protocol": "(§1) The binding affinities of the four NIR-fluorescent compounds to 12 catalytically active recombinant CA isozymes were determined by the fluorescence-based thermal shift assay (FTSA), and the dissociation constants (Kd’s) at physiological pH (pH 7.0) and 37 °C are listed in Table 1.\n(§2) All 12 catalytically active human CA isozymes were prepared recombinantly as previously described. Most isozymes were truncated, and only the catalytic domains of the proteins were produced.[9],[56] All isozymes were expressed in a bacterial expression system except that CAIX was expressed in mammalian cells. The proteins were chromatographically purified via immobilized metal affinity chromatography, ion-exchange, or p-aminomethylbenzenesulfonamide-sepharose affinity chromatography. Protein purity was confirmed by SDS-PAGE, and MW was confirmed by mass spectrometry with 1 Da precision, as predicted from theoretical protein sequence.\n(§3) The fluorescence-based thermal shift assay (FTSA) was used to determine the binding affinity of compounds for all catalytically active CA isozymes. The assay is based on the thermal stabilization of proteins by bound ligands and distinguishes itself in its ability to determine extremely high affinity (picomolar Kd) of compound binding to CAIX. The experiments were performed with a QIAGEN Rotor-Gene Q instrument using either the blue channel (365 ± 20 nm excitation and 460 ± 15 nm emission detection) or the green channel (470 ± 10 nm excitation and 510 ± 5 nm detection). The protein solution, in the absence and presence of various compound concentrations ranging from 3 to 200 μM (2× dilutions), was heated from 25 to 99 °C (heating rate, 1 °C/min). The CA isozyme melting temperature Tm was determined by following the fluorescence of 8-anilino-1-naphthalenesulfonate (ANS) or Glomelt dye. The samples consisted of 5 μM protein (or 10 μM CAIV), different concentrations of the tested compound, and 50 μM ANS or 200× diluted Glomelt in 50 mM sodium phosphate buffer (at pH 7.0) containing 100 mM sodium chloride and 2–4% (v/v) dimethyl sulfoxide. To obtain the dissociation constant (at 37 °C), data analysis was performed, and the curves were fit using the Thermott Web server.[57]"}, "human recombinant CAIII": {"biological_target": "T2, human recombinant CAIII (Homo sapiens, UniProt P07451)", "T2 construct": "made in house; host or cells: bacterial expression system", "T2 sequence (P07451 whole entry)": "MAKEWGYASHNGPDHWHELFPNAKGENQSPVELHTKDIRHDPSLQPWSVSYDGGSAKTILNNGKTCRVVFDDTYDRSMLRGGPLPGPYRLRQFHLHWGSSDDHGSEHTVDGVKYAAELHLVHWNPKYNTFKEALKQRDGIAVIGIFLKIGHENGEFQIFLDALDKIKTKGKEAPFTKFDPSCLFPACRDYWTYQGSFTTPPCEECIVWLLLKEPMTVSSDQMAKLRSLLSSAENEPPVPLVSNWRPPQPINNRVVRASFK", "test": "Fluorescence-based thermal shift assay (FTSA), CAIII", "type": "binding", "conditions": "37 °C, pH 7.0", "protocol": "as §1, §2, §3"}, "human recombinant CAVI": {"biological_target": "T3, human recombinant CAVI (Homo sapiens, UniProt P23280)", "T3 construct": "Most isozymes were truncated, and only the catalytic domains of the proteins were produced; made in house; host or cells: bacterial expression system", "T3 sequence (P23280 21-278 limits assumed)": "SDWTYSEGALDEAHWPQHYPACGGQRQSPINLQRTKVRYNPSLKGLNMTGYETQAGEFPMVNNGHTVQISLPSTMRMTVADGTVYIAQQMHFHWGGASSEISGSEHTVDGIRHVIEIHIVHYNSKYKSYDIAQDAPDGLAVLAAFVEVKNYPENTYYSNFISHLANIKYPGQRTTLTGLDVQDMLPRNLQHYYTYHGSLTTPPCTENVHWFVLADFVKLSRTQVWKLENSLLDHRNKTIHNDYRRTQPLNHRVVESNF", "test": "Fluorescence-based thermal shift assay (FTSA), CAVI", "type": "binding", "conditions": "37 °C, pH 7.0", "protocol": "as §1, §2, §3"}, "human recombinant CAXIV": {"biological_target": "T4, human recombinant CAXIV (Homo sapiens, UniProt Q9ULX7)", "T4 construct": "Most isozymes were truncated, and only the catalytic domains of the proteins were produced; made in house; host or cells: bacterial expression system", "T4 sequence (Q9ULX7 20-278 limits assumed)": "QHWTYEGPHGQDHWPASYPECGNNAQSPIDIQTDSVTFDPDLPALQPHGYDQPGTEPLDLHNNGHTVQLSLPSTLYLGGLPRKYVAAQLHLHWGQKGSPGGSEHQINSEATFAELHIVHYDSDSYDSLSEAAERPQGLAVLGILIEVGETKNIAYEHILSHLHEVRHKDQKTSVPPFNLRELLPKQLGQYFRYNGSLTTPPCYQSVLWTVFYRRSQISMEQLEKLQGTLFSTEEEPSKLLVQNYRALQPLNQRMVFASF", "test": "Fluorescence-based thermal shift assay (FTSA), CAXIV", "type": "binding", "conditions": "37 °C, pH 7.0", "protocol": "as §1, §2, §3"}, "[1]": {"biological_target": "T5, CAIX expressed on cell membranes of HeLa cells (Homo sapiens, UniProt Q16790)", "T5 construct": "an open reading frame for the full-length CAIX protein (1–459 amino acids) without a tag; expressed in transfected cells; host or cells: HeLa cells transfected with pCMV-CAIX (TurboFect), normoxia", "test": "Fluorescence microscopy staining of live HeLa cells", "type": "cell-based", "conditions": "for staining of HeLa cells (NIR fluorescence microscopy): 250 nM compound, pCMV-CAIX-transfected cells, normoxia", "from_the_text": "Live HeLa cell culture was used for visualization of the NIR-fluorescent compound binding to CAIX expressed on cell membranes (Figures 3 and S2). […] Hypoxic conditions were insufficient for CAIX-specific fluorescence detection (Figure S3). Transfected cells expressed 10-fold more CAIX protein than cells grown under hypoxia, as determined by dosing the fluorescein-containing compound GZ19-32. […] We should point out that microphotographs in Figures 3 and S2 were taken at different exposure times to ensure good visualization quality. Nevertheless, all four compounds were suitable for direct visualization of CAIX expressed on transfected cell membranes.\nFor visualization of CAIX in live cells, HeLa cells were seeded in 12-well plates, and the next day they were transfected with the pCMV-CAIX plasmid to induce CAIX expression under normoxia. The TurboFect Transfection Reagent (Thermo Fisher) was used for this purpose according to manufacturer’s directions. Cells were stained and visualized next day after transfection. Nontransfected cells, grown under normoxia, were used as a control. For the induction of CAIX expression without transfection, cells were cultured under hypoxia for 3 days.\nFor cell imaging, live cells were incubated with the recombinant monoclonal antibody to CAIX (M75) (Absolute Antibody, #Ab00414–1.1) in the CO2 incubator for 30 min. The antibody stock solution (1 mg/mL) was used at a dilution of 1:150 in FluoroBright (FB)(Thermo Fisher) medium. After washing (3 × 5 min with DMEM in RT, gentle rock), cells were incubated with secondary Alexa Fluor 488 goat antimouse antibodies (2 mg/mL, Thermo Fisher), at a dilution of 1:200 in FB, in a CO2 incubator for 30 min. After washing (3 × 5 min with DMEM in RT and 2 × 1 min with PBS), cells were incubated with NIR-fluorescent inhibitors ([…] in PBS) in a CO2 incubator for 5–8 min. After washing (2 min + 2 × 1 min with PBS), PBS was replaced by FB, and 15 μL of NucBlue Live Cell Stain ReadyProbes reagent (Thermo Fisher) was added per well. After 5 min, cells were observed and photographed using an automated fluorescence microscope EVOS FL Auto (Thermo Fisher)."}, "human recombinant CAI": {"biological_target": "T6, human recombinant CAI (Homo sapiens, UniProt P00915)", "T6 construct": "made in house; host or cells: bacterial expression system", "T6 sequence (P00915 whole entry)": "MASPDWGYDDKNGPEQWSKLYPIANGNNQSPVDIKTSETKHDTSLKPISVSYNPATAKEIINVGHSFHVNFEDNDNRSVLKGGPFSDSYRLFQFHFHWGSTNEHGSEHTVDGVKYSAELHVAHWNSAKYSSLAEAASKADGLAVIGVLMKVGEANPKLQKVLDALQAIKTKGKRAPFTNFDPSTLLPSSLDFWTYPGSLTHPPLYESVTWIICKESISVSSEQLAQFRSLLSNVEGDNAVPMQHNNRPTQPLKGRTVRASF", "test": "Fluorescence-based thermal shift assay (FTSA), CAI", "type": "binding", "conditions": "37 °C, pH 7.0", "protocol": "as §1, §2\nThe fluorescence-based thermal shift assay (FTSA) was used to determine the binding affinity of compounds for all catalytically active CA isozymes. […] The CA isozyme melting temperature Tm was determined by following the fluorescence of 8-anilino-1-naphthalenesulfonate (ANS) or Glomelt dye. […]"}},
  "data": [
    {"smiles": "CC1(C)C(/C=C/C2=C(Oc3ccc(CCC(=O)NCCOCCOCCOCCOCCOCCOCCOCCOCCOCCOCCOCCNC(=O)CCS(=O)(=O)c4c(F)c(F)c(S(N)(=O)=O)c(F)c4NC4CCCCCCC4)cc3)C(=C/C=C3\\N(CCCCS(=O)(=O)[O-])c4ccccc4C3(C)C)/CCC2)=[N+](CCCCS(=O)(=O)[O-])c2ccccc21.[Na+]", "note": "[GZ22-4, Sodium 4-((Z)-2-((E)-2-(2-(4-(43-((2-(Cyclooctylamino)-3,5,6-trifluoro-4-sulfamoylphenyl)sulfonyl)-3,41-dioxo-7,10,13,16,19,22,25,28,31,34,37-undecaoxa-4,40-diazatritetracontyl)phenoxy)-3-((E)-2-(3,3-dimethyl-1-(4-sulfonatobutyl)-3H-indol-1-ium-2-yl)vinyl)cyclohex-2-en-1-ylidene)ethylidene)-3,3-dimethylindolin-1-yl)butane-1-sulfonate]", "values": [
      {"measurement": "Kd", "setting": "human recombinant CAXII", "result": 80, "unit": "nM"},
      {"measurement": "Kd", "setting": "human recombinant CAIII", "result": 5000, "unit": "nM"},
      {"measurement": "Kd", "setting": "human recombinant CAVI", "result": 500, "unit": "nM"},
      {"measurement": "Kd", "setting": "human recombinant CAXIV", "result": 90, "unit": "nM"},
      {"measurement": "staining of HeLa cells (NIR fluorescence microscopy)", "setting": "[1]", "result": "stained the membranes of pCMV-CAIX-transfected cells"},
      {"measurement": "fluorescence signal compared to the other compounds at identical exposure conditions", "setting": "[1]; 250 nM, transfected HeLa, Cy7 filter", "result": "best fluorescence signal"}
    ]},
    {"smiles": "CC1(C)C(/C=C/C2=C(Oc3cccc(CC(=O)NCCCOCCOCCOCCCNC(=O)CCS(=O)(=O)c4c(F)c(F)c(S(N)(=O)=O)c(F)c4NC4CCCCCCC4)c3)C(=C/C=C3\\N(CCCCS(=O)(=O)[O-])c4ccccc4C3(C)C)/CCC2)=[N+](CCCCS(=O)(=O)[O-])c2ccccc21.[Na+]", "note": "[GZ21-19, Sodium 4-((Z)-2-((E)-2-(2-(3-(20-((2-(Cyclooctylamino)-3,5,6-trifluoro-4-sulfamoylphenyl)sulfonyl)-2,18-dioxo-7,10,13-trioxa-3,17-diazaicosyl)phenoxy)-3-((E)-2-(3,3-dimethyl-1-(4-sulfonatobutyl)-3H-indol-1-ium-2-yl)vinyl)cyclohex-2-en-1-ylidene)ethylidene)-3,3-dimethylindolin-1-yl)butane-1-sulfonate]", "values": [
      {"measurement": "Kd", "setting": "human recombinant CAXII", "result": 60, "unit": "nM"},
      {"measurement": "Kd", "setting": "human recombinant CAIII", "result": 20000, "unit": "nM"},
      {"measurement": "Kd", "setting": "human recombinant CAVI", "result": 700, "unit": "nM"},
      {"measurement": "Kd", "setting": "human recombinant CAXIV", "result": 100, "unit": "nM"},
      {"measurement": "staining of HeLa cells (NIR fluorescence microscopy)", "setting": "[1]", "result": "stained the membranes of pCMV-CAIX-transfected cells"},
      {"measurement": "Kd", "setting": "human recombinant CAI", "result": 10000, "unit": "nM"}
    ]},
    {"smiles": "CC1(C)C(/C=C/C2=C(Oc3ccc(CCC(=O)NCCCOCCOCCOCCCNC(=O)CCS(=O)(=O)c4c(F)c(F)c(S(N)(=O)=O)c(F)c4NC4CCCCCCC4)cc3)C(=C/C=C3\\N(CCCCS(=O)(=O)[O-])c4ccccc4C3(C)C)/CCC2)=[N+](CCCCS(=O)(=O)[O-])c2ccccc21.[Na+]", "note": "[GZ22-1, Sodium 4-((Z)-2-((E)-2-(2-(4-(21-((2-(Cyclooctylamino)-3,5,6-trifluoro-4-sulfamoylphenyl)sulfonyl)-3,19-dioxo-8,11,14-trioxa-4,18-diazahenicosyl)phenoxy)-3-((E)-2-(3,3-dimethyl-1-(4-sulfonatobutyl)-3H-indol-1-ium-2-yl)vinyl)cyclohex-2-en-1-ylidene)ethylidene)-3,3-dimethylindolin-1-yl)butane-1-sulfonate]", "values": [
      {"measurement": "Kd", "setting": "human recombinant CAXII", "result": 200, "unit": "nM"},
      {"measurement": "Kd", "setting": "human recombinant CAIII", "result": 30000, "unit": "nM"},
      {"measurement": "Kd", "setting": "human recombinant CAVI", "result": 700, "unit": "nM"},
      {"measurement": "Kd", "setting": "human recombinant CAXIV", "result": 100, "unit": "nM"},
      {"measurement": "staining of HeLa cells (NIR fluorescence microscopy)", "setting": "[1]", "result": "stained the membranes of pCMV-CAIX-transfected cells"}
    ]},
    {"smiles": "CC1(C)C(/C=C/C2=C(NCCCOCCOCCOCCCNC(=O)CCC(=O)NCCS(=O)(=O)c3c(F)c(F)c(S(N)(=O)=O)c(F)c3NC3CCCCCCC3)C(=C/C=C3\\N(CCCCS(=O)(=O)[O-])c4ccccc4C3(C)C)/CCC2)=[N+](CCCCS(=O)(=O)[O-])c2ccccc21.[Na+]", "note": "[AZ21-6, Sodium 4-((Z)-2-((E)-2-(2-((1-((2-(Cyclooctylamino)-3,5,6-trifluoro-4-sulfamoylphenyl)sulfonyl)-4,7-dioxo-12,15,18-trioxa-3,8-diazahenicosan-21-yl)amino)-3-((E)-2-(3,3-dimethyl-1-(4-sulfonatobutyl)-3H-indol-1-ium-2-yl)vinyl)cyclohex-2-en-1-ylidene)ethylidene)-3,3-dimethylindolin-1-yl)butane-1-sulfonate]", "values": [
      {"measurement": "Kd", "setting": "human recombinant CAXII", "result": 50, "unit": "nM"},
      {"measurement": "Kd", "setting": "human recombinant CAIII", "result": 30000, "unit": "nM"},
      {"measurement": "Kd", "setting": "human recombinant CAVI", "result": 1000, "unit": "nM"},
      {"measurement": "Kd", "setting": "human recombinant CAXIV", "result": 100, "unit": "nM"},
      {"measurement": "staining of HeLa cells (NIR fluorescence microscopy)", "setting": "[1]", "result": "stained the membranes of pCMV-CAIX-transfected cells"},
      {"measurement": "Kd", "setting": "human recombinant CAI", "result": 20000, "unit": "nM"}
    ]}
  ]
}
